Here are results for eight compounds from publication PMC10763615, “Identification and engineering of potent cyclic peptides with selective or promiscuous binding through biochemical profiling and bioinformatic data analysis” (RSC Chemical Biology, 2023).

SMILES strings stand for the structures. Read-outs that look alike come from different tables or passages of the source. Positions of bridges follow the written chain, without caps; N, C: chain ends. Residues, ends and D or L forms follow the SMILES beside them.

Format in all cases: binding
One test concerns the target T1, FGF-R1C ECD (Homo sapiens, UniProt P11362).
T1 sequence (P11362 22-376 limits assumed): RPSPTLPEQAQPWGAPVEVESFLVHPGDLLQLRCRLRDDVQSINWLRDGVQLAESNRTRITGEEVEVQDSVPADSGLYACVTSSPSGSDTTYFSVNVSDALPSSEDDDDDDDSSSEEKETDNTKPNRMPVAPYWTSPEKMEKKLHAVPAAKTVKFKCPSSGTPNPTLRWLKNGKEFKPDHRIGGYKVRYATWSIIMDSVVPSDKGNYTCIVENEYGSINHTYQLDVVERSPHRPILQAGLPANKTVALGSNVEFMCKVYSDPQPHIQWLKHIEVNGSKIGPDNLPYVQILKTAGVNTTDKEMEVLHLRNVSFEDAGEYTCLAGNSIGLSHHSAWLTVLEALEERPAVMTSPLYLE
As to the kind of experiment: biochemical. Also noted: DNA constructs for the extracellular domain (ECD) of human FGF-; HPC4 (C); made in house; host or cells: HEK 293-6E. The essentials: (§1)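 Streptavidin biosensors carrying biotinylated FGF receptor ECD were immersed in peptide (~1 μM for crude single-point runs, a concentration series for purified peptides) and then in peptide-free buffer. KD was obtained by fitting the BLI association and dissociation curves.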

The next test deals with T2, FGF-R3C ECD (Homo sapiens, UniProt P22607).
T2 sequence (P22607 23-375 limits assumed): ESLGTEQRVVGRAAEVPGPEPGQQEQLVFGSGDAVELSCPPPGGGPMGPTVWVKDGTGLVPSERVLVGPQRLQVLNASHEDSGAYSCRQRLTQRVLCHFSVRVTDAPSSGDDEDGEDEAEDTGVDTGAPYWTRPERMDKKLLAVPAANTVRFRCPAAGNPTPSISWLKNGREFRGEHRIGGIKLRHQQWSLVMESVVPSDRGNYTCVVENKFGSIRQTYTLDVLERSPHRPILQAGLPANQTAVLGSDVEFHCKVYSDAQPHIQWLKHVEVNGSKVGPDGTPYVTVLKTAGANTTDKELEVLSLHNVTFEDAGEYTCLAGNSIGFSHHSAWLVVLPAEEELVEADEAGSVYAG
Kind of test: biochemical. Also noted: DNA constructs for the extracellular domain (ECD) of human FGF-; HPC4 (C); made in house; host or cells: HEK 293-6E. The essentials: as §1

The target in a further test is T3, FGF-R4 ECD (Homo sapiens, UniProt P22455).
T3 construct: DNA constructs for the extracellular domain (ECD) of human FGF-; HPC4 (C); made in house; host or cells: HEK 293-6E
T3 sequence (P22455 22-369 limits assumed): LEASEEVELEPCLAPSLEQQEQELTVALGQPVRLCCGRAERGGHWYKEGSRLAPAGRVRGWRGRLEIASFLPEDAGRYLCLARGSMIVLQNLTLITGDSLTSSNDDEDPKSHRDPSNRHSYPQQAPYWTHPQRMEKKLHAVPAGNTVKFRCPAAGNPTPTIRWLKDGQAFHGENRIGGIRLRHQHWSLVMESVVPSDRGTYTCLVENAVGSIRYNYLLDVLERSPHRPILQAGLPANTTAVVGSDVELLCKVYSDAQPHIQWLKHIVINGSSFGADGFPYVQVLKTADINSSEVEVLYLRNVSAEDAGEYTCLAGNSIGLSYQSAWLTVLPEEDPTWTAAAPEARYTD
As to the kind of experiment: single concentration BLI of crude peptides. The method, boiled down: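 BLI, streptavidin sensors loaded with biotinylated receptor ECD. Single-point: ~1 μM crude peptide, PBS pH7.4/0.05% Tween-20/0.01% BSA; association then dissociation in buffer. KD corrected for UPLC-CAD-determined concentration.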

The mark [1] stands for this setting: crude T18 selection 1 (1:1:1) peptides, single concentration BLI (Table S4), read-out: KD (4).
[2] abbreviates: crude NNK peptides, single concentration BLI (Table S3), read-out: KD (4).

The term Kd denotes the equilibrium constant for the complex coming apart. Consider `CSCC[C@H](NC(C)=O)C(=O)N[C@H]1CSSC[C@@H](C(=O)NCC(=O)N[C@@H](CO)C(=O)NCC(=O)N[C@@H](CO)C(=O)N[C@@H](CC(=O)O)C(=O)N[C@@H](Cc2ccc(O)cc2)C(=O)N[C@@H](CCCCN)C(=O)N[C@@H](CC(=O)O)C(=O)N[C@@H](CC(=O)O)C(=O)N[C@@H](CC(=O)O)C(=O)N[C@@H](CC(=O)O)C(=O)N[C@@H](CCCCN)C(N)=O)NC(=O)[C@H](Cc2c[nH]c3ccccc23)NC(=O)[C@H](CC(C)C)NC(=O)[C@H](CC(C)C)NC(=O)[C@H](Cc2ccc(O)cc2)NC(=O)[C@H](Cc2ccc(O)cc2)NC(=O)[C@H](Cc2ccccc2)NC(=O)[C@H](CC(C)C)NC(=O)[C@H](Cc2c[nH]cn2)NC(=O)[C@H](CCC(=O)O)NC(=O)[C@H](CCCCN)NC(=O)[C@H](C)NC1=O` (Ac-MCAKEHLFYYLLWCGSGSDYKDDDDK-NH2; disulfide 2-14), for which the results for the Kd at FGF-R1C ECD, on FGF-R3C ECD and on FGF-R4 ECD (setting [1]) were more than 10 µM, more than 10 µM and 0.041 µM, respectively.

`CSCC[C@H](NC(C)=O)C(=O)N[C@H]1CSSC[C@@H](C(=O)NCC(=O)N[C@@H](CO)C(=O)NCC(=O)N[C@@H](CO)C(=O)N[C@@H](CC(=O)O)C(=O)N[C@@H](Cc2ccc(O)cc2)C(=O)N[C@@H](CCCCN)C(=O)N[C@@H](CC(=O)O)C(=O)N[C@@H](CC(=O)O)C(=O)N[C@@H](CC(=O)O)C(=O)N[C@@H](CC(=O)O)C(=O)N[C@@H](CCCCN)C(N)=O)NC(=O)[C@H](CO)NC(=O)[C@H](Cc2c[nH]cn2)NC(=O)[C@H](Cc2ccccc2)NC(=O)[C@H](CC(C)C)NC(=O)[C@H](CCCCN)NC(=O)[C@H](Cc2ccc(O)cc2)NC(=O)[C@H](Cc2ccc(O)cc2)NC(=O)[C@H](CC(C)C)NC(=O)[C@H](CC(C)C)NC(=O)[C@H](Cc2c[nH]cn2)NC1=O` (Ac-MCHLLYYKLFHSCGSGSDYKDDDDK-NH2; disulfide 2-13): the Kd was 0.063 µM at FGF-R1C ECD, more than 10 µM on FGF-R3C ECD and 0.114 µM on FGF-R4 ECD (setting [1]).

Take `CC[C@H](C)[C@@H]1NC(=O)[C@@H]2CCCN2C(=O)[C@H](Cc2c[nH]c3ccccc23)NC(=O)[C@H](Cc2ccccc2)NC(=O)[C@@H](NC(=O)[C@H](CCSC)NC(C)=O)CSSC[C@@H](C(=O)NCC(=O)N[C@@H](CO)C(=O)NCC(=O)N[C@@H](CO)C(=O)N[C@@H](CC(=O)O)C(=O)N[C@@H](Cc2ccc(O)cc2)C(=O)N[C@@H](CCCCN)C(=O)N[C@@H](CC(=O)O)C(=O)N[C@@H](CC(=O)O)C(=O)N[C@@H](CC(=O)O)C(=O)N[C@@H](CC(=O)O)C(=O)N[C@@H](CCCCN)C(N)=O)NC(=O)[C@H](C)NC(=O)[C@H](CCSC)NC(=O)[C@H](Cc2ccccc2)NC(=O)[C@H](CCCCN)NC(=O)[C@H](Cc2ccc(O)cc2)NC(=O)[C@H](Cc2c[nH]c3ccccc23)NC1=O` (Ac-MCFWPIWYKFMACGSGSDYKDDDDK-NH2; disulfide 2-13): the equilibrium dissociation constant (Kd) on FGF-R1C ECD, at FGF-R3C ECD and on FGF-R4 ECD (setting [2]) was more than 10 µM in each case.

Consider `CC[C@H](C)[C@@H]1NC(=O)[C@H](Cc2ccc(O)cc2)NC(=O)[C@H](CCCNC(=N)N)NC(=O)[C@H](Cc2c[nH]cn2)NC(=O)[C@@H](NC(=O)[C@H](CCSC)NC(C)=O)CSSC[C@@H](C(=O)NCC(=O)N[C@@H](CO)C(=O)NCC(=O)N[C@@H](CO)C(=O)N[C@@H](CC(=O)O)C(=O)N[C@@H](Cc2ccc(O)cc2)C(=O)N[C@@H](CCCCN)C(=O)N[C@@H](CC(=O)O)C(=O)N[C@@H](CC(=O)O)C(=O)N[C@@H](CC(=O)O)C(=O)N[C@@H](CC(=O)O)C(=O)N[C@@H](CCCCN)C(N)=O)NC(=O)[C@H](Cc2c[nH]cn2)NC(=O)[C@H](Cc2c[nH]c3ccccc23)NC(=O)[C@H](Cc2ccc(O)cc2)NC(=O)[C@H](CC(=O)O)NC(=O)[C@H](CC(C)C)NC(=O)[C@H](Cc2ccc(O)cc2)NC1=O` (Ac-MCHRYIYLDYWHCGSGSDYKDDDDK-NH2; disulfide 2-13), for which the Kd on FGF-R1C ECD was more than 10 µM; at FGF-R3C ECD, more than 10 µM; on FGF-R4 ECD, 0.044 µM.

As for `CSCC[C@H](NC(C)=O)C(=O)N[C@H]1CSSC[C@@H](C(=O)NCC(=O)N[C@@H](CO)C(=O)NCC(=O)N[C@@H](CO)C(=O)N[C@@H](CC(=O)O)C(=O)N[C@@H](Cc2ccc(O)cc2)C(=O)N[C@@H](CCCCN)C(=O)N[C@@H](CC(=O)O)C(=O)N[C@@H](CC(=O)O)C(=O)N[C@@H](CC(=O)O)C(=O)N[C@@H](CC(=O)O)C(=O)N[C@@H](CCCCN)C(N)=O)NC(=O)[C@H](Cc2c[nH]cn2)NC(=O)[C@H](CC(C)C)NC(=O)[C@H](C(C)C)NC(=O)[C@H](CCC(N)=O)NC(=O)[C@H](Cc2c[nH]c3ccccc23)NC(=O)[C@H](Cc2ccc(O)cc2)NC(=O)[C@H](CCCNC(=N)N)NC(=O)[C@H](C(C)C)NC(=O)[C@H](Cc2ccc(O)cc2)NC(=O)[C@H](Cc2ccc(O)cc2)NC(=O)[C@H](C)NC(=O)[C@H](CC(=O)O)NC1=O` (Ac-MCDAYYVRYWQVLHCGSGSDYKDDDDK-NH2; disulfide 2-15), the Kd at FGF-R1C ECD is more than 10 µM; on FGF-R3C ECD it was more than 10 µM; at FGF-R4 ECD (setting [1]), 0.036 µM.

For `CC[C@H](C)[C@@H]1NC(=O)[C@@H](NC(=O)[C@H](CCSC)NC(C)=O)CSSC[C@@H](C(=O)NCC(=O)N[C@@H](CO)C(=O)NCC(=O)N[C@@H](CO)C(=O)N[C@@H](CC(=O)O)C(=O)N[C@@H](Cc2ccc(O)cc2)C(=O)N[C@@H](CCCCN)C(=O)N[C@@H](CC(=O)O)C(=O)N[C@@H](CC(=O)O)C(=O)N[C@@H](CC(=O)O)C(=O)N[C@@H](CC(=O)O)C(=O)N[C@@H](CCCCN)C(N)=O)NC(=O)[C@@H]2CCCN2C(=O)[C@H](CCCNC(=N)N)NC(=O)[C@H](Cc2c[nH]c3ccccc23)NC(=O)[C@H](CCC(=O)O)NC(=O)[C@H](CCC(=O)O)NC(=O)[C@H](Cc2c[nH]c3ccccc23)NC(=O)[C@H](CCCCN)NC(=O)[C@H](CC(N)=O)NC(=O)[C@H](CCCCN)NC(=O)[C@H](CCCNC(=N)N)NC(=O)[C@H]([C@@H](C)O)NC1=O` (Ac-MCITRKNKWEEWRPCGSGSDYKDDDDK-NH2; disulfide 2-15), the Kd on FGF-R1C ECD, on FGF-R3C ECD and at FGF-R4 ECD (setting [1]) was more than 10 µM in each case.

In the case of `CC[C@H](C)[C@@H]1NC(=O)[C@H](Cc2ccccc2)NC(=O)[C@@H]2CCCN2C(=O)[C@H](CC(C)C)NC(=O)[C@H](Cc2ccccc2)NC(=O)[C@H](CC(C)C)NC(=O)[C@H](CC(=O)O)NC(=O)[C@H](Cc2ccccc2)NC(=O)[C@H]([C@@H](C)O)NC(=O)[C@@H](NC(=O)[C@@H](N)CCSC)CSSC[C@@H](C(=O)NCC(=O)N[C@@H](CO)C(=O)NCC(=O)N[C@@H](CO)C(=O)N[C@@H](CC(=O)O)C(=O)N[C@@H](Cc2ccc(O)cc2)C(=O)N[C@@H](CCCCN)C(=O)N[C@@H](CC(=O)O)C(=O)N[C@@H](CC(=O)O)C(=O)N[C@@H](CC(=O)O)C(=O)N[C@@H](CC(=O)O)C(=O)N[C@@H](CCCCN)C(N)=O)NC(=O)[C@H](Cc2ccccc2)NC1=O` (H-MCTFDLFLPFIFCGSGSDYKDDDDK-NH2; disulfide 2-13), the results for the Kd at FGF-R1C ECD, at FGF-R3C ECD and on FGF-R4 ECD (setting [2]) were more than 10 µM, 0.177 µM and more than 10 µM, respectively.

As to `CC[C@H](C)[C@@H]1NC(=O)[C@H](CC(C)C)NC(=O)[C@H](Cc2c[nH]c3ccccc23)NC(=O)[C@H](CCCCN)NC(=O)[C@@H]2CCCN2C(=O)[C@@H](NC(=O)[C@H](CCSC)NC(C)=O)CSSC[C@@H](C(=O)NCC(=O)N[C@@H](CO)C(=O)NCC(=O)N[C@@H](CO)C(=O)N[C@@H](CC(=O)O)C(=O)N[C@@H](Cc2ccc(O)cc2)C(=O)N[C@@H](CCCCN)C(=O)N[C@@H](CC(=O)O)C(=O)N[C@@H](CC(=O)O)C(=O)N[C@@H](CC(=O)O)C(=O)N[C@@H](CC(=O)O)C(=O)N[C@@H](CCCCN)C(N)=O)NC(=O)[C@H](CC(N)=O)NC(=O)[C@H](CC(C)C)NC(=O)[C@H](CC(C)C)NC(=O)[C@H](C(C)C)NC(=O)[C@H](CCCCN)NC1=O` (Ac-MCPKWLIKVLLNCGSGSDYKDDDDK-NH2; disulfide 2-13), the Kd is more than 10 µM on FGF-R1C ECD, more than 10 µM at FGF-R3C ECD and 4.19 µM on FGF-R4 ECD (setting [2]).
